Patent US20250296953A1, “3,4-THIAZOLO-STEROIDS AND METHODS OF MAKING AND USING THE SAME” (Arkansas State University - Jonesboro, priority 2018, published 2025)
Like-named read-outs stand apart in the source and are kept apart here.

Tests used:
NCI-H522 (NSCLC) = assay: NCI 60 one dose screen; format: cell-based, human; settings: Non-small Cell Lung Cancer
gliosarcoma (SF-539) = assay: NCI 60 five dose screen
RPMI-8226 = assay: NCI 60 five dose screen
SR = assay: NCI 60 five dose screen
SF-295 = assay: NCI 60 one dose screen; format: cell-based, human; settings: one dose; CNS Cancer; SF-295
[1] = system: 60 different human tumor cell lines; assay: cells
[2] = system: 60 different human tumor cell lines; assay: NCI Development Therapeutics Program 60 cell line screen, one dose; format: cell-based
SF-539 = assay: NCI 60 one dose screen; format: cell-based, human; settings: one dose; CNS Cancer; SF-539
HCT-15 (Colon Cancer) = assay: NCI 60 one dose screen; format: cell-based, human

For `C[C@]12CCc3sc(Nc4ccc(OC(F)(F)F)cc4)nc3C1=CC[C@@H]1[C@@H]2CC[C@]2(C)C(=O)CC[C@@H]12` [IIa.19, (1S,2R,13R,14S,18S)-2,18-dimethyl-7-[4-(trifluoromethoxy)anilino]-6-thia-8-azapentacyclo[11.7.0.02,10.05,9.014,18]icosa-5(9),7,10-trien-17-one], the “Growth Percent” value (NCI-H522 (NSCLC)) was 89.13%, the GI50 (gliosarcoma (SF-539); Homo sapiens, SF-539) was 1.05 µM and the CC50 (gliosarcoma (SF-539); Homo sapiens, SF-539, read-out: LC50) was 7.07 µM. For the same compound, the TGI (gliosarcoma (SF-539); SF-539 (CNS Cancer), five dose) was 2.72E−6, the GI50 (RPMI-8226; Homo sapiens, RPMI-8226) was 1.02 µM and the CC50 (RPMI-8226; Homo sapiens, RPMI-8226, read-out: LC50) was greater than 100 µM. It also gave a TGI (RPMI-8226; RPMI-8226 (Leukemia), five dose) of 3.77E−6, a GI50 (SR; Homo sapiens, SR) of 2.74 µM and a CC50 (SR; Homo sapiens, SR, read-out: LC50) greater than 100 µM. For the same compound, the TGI (SR; SR (Leukemia), five dose) was greater than 1.00E−4, the “Growth Percent” value (SF-295) was −2.71% and the GI50 ([1]; A549) was 3.35 µM. For the same compound, the CC50 ([1]; A549, read-out: LC50) was 73.5 µM, the GI50 ([1]; CCRF-CEM) was 1.42 µM and the CC50 ([1]; CCRF-CEM, read-out: LC50) was greater than 100 µM. It also gave a GI50 ([1]; COLO 205) of 2.61 µM, a CC50 ([1]; COLO 205, read-out: LC50) of 58.7 µM and a GI50 ([1]; EKVX) of 2.63 µM. The CC50 ([1]; EKVX, read-out: LC50) was 95.7 µM, the GI50 ([1]; HCC 2998) was 5.32 µM and the CC50 ([1]; HCC 2998, read-out: LC50) was 51.2 µM. It also gave a GI50 ([1]; HCT-15) of 1.69 µM, a CC50 ([1]; HCT-15, read-out: LC50) of 9.97 µM and a GI50 ([1]; HCT-116) of 1.28 µM. It also gave a GI50 ([1]; HL-60) of 1.93 µM, a CC50 ([1]; HL-60, read-out: LC50) greater than 100 µM and a GI50 ([1]; HOP-62) of 1.92 µM. It also gave a CC50 ([1]; HOP-62, read-out: LC50) of 9.14 µM, a GI50 ([1]; HOP-92) of 1.43 µM and a CC50 ([1]; HOP-92, read-out: LC50) of 8.26 µM. It also gave a GI50 ([1]; HT-29) of 2.39 µM, a CC50 ([1]; HT-29, read-out: LC50) greater than 100 µM and a GI50 ([1]; K562) of 1.87 µM. The CC50 ([1]; K562, read-out: LC50) was greater than 100 µM, the GI50 ([1]; KM12) was 3.56 µM and the CC50 ([1]; KM12, read-out: LC50) was greater than 100 µM. The GI50 ([1]; LOX IMVI) was 1.74 µM, the CC50 ([1]; LOX IMVI, read-out: LC50) was 5.82 µM and the GI50 ([1]; MOLT-4) was 1.53 µM. It also gave a CC50 ([1]; MOLT-4, read-out: LC50) greater than 100 µM, a GI50 ([1]; Malme-3M) of 3.45 µM and a CC50 ([1]; Malme-3M, read-out: LC50) of 84.5 µM. For the same compound, the GI50 ([1]; NCI-H23) was 3.73 µM, the CC50 ([1]; NCI-H23, read-out: LC50) was 94.6 µM and the GI50 ([1]; NCI-H226) was 6.37 µM. The CC50 ([1]; NCI-H226, read-out: LC50) was greater than 100 µM, the GI50 ([1]; NCI-H322M) was 6.05 µM and the CC50 ([1]; NCI-H322M, read-out: LC50) was greater than 100 µM. It also gave a GI50 ([1]; NCI-H460) of 3.25 µM, a CC50 ([1]; NCI-H460, read-out: LC50) of 41.9 µM and a GI50 ([1]; NCI-H522) of 2.14 µM. The CC50 ([1]; NCI-H522, read-out: LC50) was 9.7 µM, the GI50 ([1]; SF-268) was 3.01 µM and the CC50 ([1]; SF-268, read-out: LC50) was 57.3 µM. The GI50 ([1]; SNB-19) was 2.12 µM, the CC50 ([1]; SNB-19, read-out: LC50) was 46 µM and the GI50 ([1]; SNB-75) was 1.88 µM. It also gave a CC50 ([1]; SNB-75, read-out: LC50) of 29.6 µM, a GI50 ([1]; SW-620) of 2.21 µM and a CC50 ([1]; SW-620, read-out: LC50) of 18.5 µM. For the same compound, the GI50 ([1]; U-251) was 1.09 µM, the CC50 ([1]; U-251, read-out: LC50) was 9.78 µM and the “Growth Percent” value ([2]; Breast Cancer, BT-549) was 53.50%. For the same compound, the “Growth Percent” value ([2]; Breast Cancer, HS 578T) was 38.46%, the “Growth Percent” value ([2]; Breast Cancer, MCF7) was 17.08% and the “Growth Percent” value ([2]; Breast Cancer, MDA-MB-231/ATCC) was 73.45%. For the same compound, the “Growth Percent” value ([2]; Breast Cancer, MDA-MB-468) was 69.12%, the “Growth Percent” value ([2]; Breast Cancer, T-47D) was 41.82% and the “Growth Percent” value ([2]; CNS Cancer, SF-268) was 68.55%. The “Growth Percent” value ([2]; CNS Cancer, SNB-19) was 56.49%, the “Growth Percent” value ([2]; CNS Cancer, SNB-75) was 68.60% and the “Growth Percent” value ([2]; CNS Cancer, U251) was 34.08%. For the same compound, the “Growth Percent” value ([2]; Colon Cancer, COLO 205) was 67.03%, the “Growth Percent” value ([2]; Colon Cancer, HCC-2998) was 96.47% and the “Growth Percent” value ([2]; Colon Cancer, HCT-116) was 7.77%. The “Growth Percent” value ([2]; Colon Cancer, HT29) was 12.95%, the “Growth Percent” value ([2]; Colon Cancer, KM12) was 53.51% and the “Growth Percent” value ([2]; Colon Cancer, SW-620) was 43.34%. The “Growth Percent” value ([2]; Leukemia, CCRF-CEM) was 5.05%, the “Growth Percent” value ([2]; Leukemia, HL-60(TB)) was 43.98% and the “Growth Percent” value ([2]; Leukemia, K-562) was 8.20%. For the same compound, the “Growth Percent” value ([2]; Leukemia, MOLT-4) was 4.15%, the “Growth Percent” value ([2]; Leukemia, RPMI-8226) was 2.88% and the “Growth Percent” value ([2]; Leukemia, SR) was 16.86%. For the same compound, the “Growth Percent” value ([2]; Melanoma, LOX IMVI) was 34.82%, the “Growth Percent” value ([2]; Melanoma, M14) was 83.90% and the “Growth Percent” value ([2]; Melanoma, MALME-3M) was 76.83%. For the same compound, the “Growth Percent” value ([2]; Melanoma, MDA-MB-435) was 77.59%, the “Growth Percent” value ([2]; Melanoma, SK-MEL-2) was 61.81% and the “Growth Percent” value ([2]; Melanoma, SK-MEL-5) was 95.89%. The “Growth Percent” value ([2]; Melanoma, SK-MEL-28) was 65.29%, the “Growth Percent” value ([2]; Melanoma, UACC-62) was 63.42% and the “Growth Percent” value ([2]; Melanoma, UACC-257) was 84.04%. The “Growth Percent” value ([2]; Non-small Cell Lung Cancer, A549/ATCC) was 67.03%, the “Growth Percent” value ([2]; Non-small Cell Lung Cancer, EKVX) was 78.41% and the “Growth Percent” value ([2]; Non-small Cell Lung Cancer, HOP-62) was 80.02%. For the same compound, the “Growth Percent” value ([2]; Non-small Cell Lung Cancer, HOP-92) was 74.98%, the “Growth Percent” value ([2]; Non-small Cell Lung Cancer, NCI-H23) was 75.47% and the “Growth Percent” value ([2]; Non-small Cell Lung Cancer, NCI-H226) was 74.91%. For the same compound, the “Growth Percent” value ([2]; Non-small Cell Lung Cancer, NCI-H322M) was 77.29%, the “Growth Percent” value ([2]; Non-small Cell Lung Cancer, NCI-H460) was 53.27% and the “Growth Percent” value ([2]; Ovarian Cancer, IGROV1) was 93.62%. The “Growth Percent” value ([2]; Ovarian Cancer, NCI/ADR-RES) was 81.59%, the “Growth Percent” value ([2]; Ovarian Cancer, OVCAR-3) was 37.42% and the “Growth Percent” value ([2]; Ovarian Cancer, OVCAR-4) was 63.99%. The “Growth Percent” value ([2]; Ovarian Cancer, OVCAR-5) was 91.93%, the “Growth Percent” value ([2]; Ovarian Cancer, OVCAR-8) was 66.51% and the “Growth Percent” value ([2]; Ovarian Cancer, SK-OV-3) was 69.90%. The “Growth Percent” value ([2]; Prostate Cancer, DU-145) was 66.11%, the “Growth Percent” value ([2]; Prostate Cancer, PC-3) was 38.59% and the “Growth Percent” value ([2]; Renal Cancer, 786-0) was 30.50%. The “Growth Percent” value ([2]; Renal Cancer, A498) was 75.00%, the “Growth Percent” value ([2]; Renal Cancer, ACHN) was 71.59% and the “Growth Percent” value ([2]; Renal Cancer, CAKI-1) was 60.44%. For the same compound, the “Growth Percent” value ([2]; Renal Cancer, RXF 393) was −32.25%, the “Growth Percent” value ([2]; Renal Cancer, SN12C) was 71.17% and the “Growth Percent” value ([2]; Renal Cancer, TK-10) was 98.20%. For the same compound, the “Growth Percent” value ([2]; Renal Cancer, UO-31) was 54.33%, the “Growth Percent” value (SF-539) was −5.40% and the “Growth Percent” value (HCT-15 (Colon Cancer)) was 38.33%.
